{"source": "patent US11542304B2", "about": "“Multimeric bicyclic peptide ligands” (BicycleTx Limited, priority 2018, dated 2023)", "key": {"MC38 syngeneic tumors": {"system": "MC38 syngeneic tumors", "assay": "In vivo efficacy in MC38 syngeneic tumors in C57BL/6J B-h4-1BB humanized mice", "procedure": "The MC38 murine colon carcinoma cell line was purchased from Shunran Shanghai Biological Technology Co., Ltd. The cells will be maintained in vitro as monolayer culture in Dulbecco's Modified Eagle's medium (DMEM) supplemented with 10% heat inactivated fetal calf serum, 100 U/mL penicillin and 100 μg/mL streptomycin at 37° C. in an atmosphere of 5% CO2. The tumor cells will be routinely subcultured twice weekly by trypsin-EDTA treatment. Cells growing in an exponential growth phase will be harvested and counted for tumor inoculation. 6-8 week old female C57BL/6J B-h4-1BB humanized mice were subcutaneously injected (in the flank) with MC38 tumor cells (5×10^5) with 0.1 mL PBS for tumor development. Tumor-bearing animals were randomly enrolled into six study groups when the mean tumor size reached approximately 113 mm^3 (Study 1) or 107 mm^3 (Study 2). The test and positive control articles were administrated to the tumor-bearing mice according to predetermined regimens as shown below.\nTest articles were formulated in aqueous vehicle (25 mM Histidine, 10% sucrose pH=7) and administered intravenously or intraperitoneally. CD137 monoclonal antibody agonist was administered by intraperitoneal injection in 0.9% saline.\nTumor volume was measured three times a week in two dimensions using a caliper, and the volume was expressed in mm3 using the formula: V=0.5a×b2 where a and b were the long and short diameters of the tumor, respectively. Results are represented by mean and the standard deviation (Mean±SD).\nIn study 2, mice were sacrificed 21 days after treatment initiation and tumors were harvested for T-cell analysis by flow cytometry. Tumor were cut into small pieces and filtered through a 70 micrometer filter. Lymphocytes were isolated using Histopaque 1083 and resuspended in RPMI 1640 supplemented with 10% fetal bovine serum. Lymphocytes were stained with a cell viability dye (Zombie NIR, Biolegend, #423106) and a panel of antibodies including anti-mouse CD45 (Biolegend, #103138), anti-mouse CD3 (Biolegend, #100328), anti-mouse CD4 (Biolegend, #100438), anti-mouse CD8 (Biolegend, #100759). Stained cells were analysed by Attune N×T Flow Cytometer. T-cell results are expressed as % of CD3+ cells among CD45+ cells. CD8+ T-cell results are expressed as % of CD8+ cells among CD45+CD3+ cells. CD4+ T-cell results are expressed as % of CD4+ cells among CD45+CD3+ cells. Results are represented by mean and the standard deviation (Mean±SD) and the individual values.\nStatistical analysis: Data was analyzed using 2way ANOVA or ordinary One-way ANOVA with Dunnett's test for multiple comparisons, and P<0.05 was considered to be statistically significant. Both statistical analysis and biological observations are taken into consideration. ***p<0.001, **p<0.01, *p<0.05."}, "[1]": {"system": "Pan T-cells (isolated from human PBMCs)", "assay": "T-cell cytokine release assay", "format": "cell-based", "details": "anti-CD3 stimulated T cells, 48 hours; FIG. 14", "procedure": "Healthy human buffy coat was purchased from the Sylvan N. Goldman Oklahoma Blood Institute and shipped fresh. Peripheral blood mononuclear cells (PBMCs) were isolated by Ficoll density gradient centrifugation. Red blood cells were lysed with ACK (Ammonium-Chloride-Potassium) lysis buffer. Pan T-cells were then isolated from total PBMCs using negative magnetic bead selection (Miltenyi MACS human Pan-T cell isolation kit). Pan T-cells were then plated on anti-CD3 coated 96-well plates (0.5 μg/mL) in culture media (RPMI1640 with 10% FBS) plus or minus compounds. Supernatant from cultures was collected after 24 and 48 hours. Cytokine [i.e., interleukin-2 (IL-2), interferon gamma (IFNγ)] release in supernatant was measured by HTRF assay (CisBio) according to the kit's instructions. HTRF assay plates were read on a Clariostar plate reader (BMG Labtech) at 665 nm and 620 nm. Data was analyzed and extrapolated to a standard curve according to the HTRF kit instruction in Prism and Excel. Cytokine release fold change was calculated by dividing the pg/mL of cytokine detected by background cytokine released (CD3 stimulation alone). Data was graphed in Prism as the mean of replicates with standard deviation error bars."}, "CD137 [2]": {"target": "T1, CD137 (Homo sapiens, UniProt Q07011)", "T1 sequence (Q07011 24-255)": "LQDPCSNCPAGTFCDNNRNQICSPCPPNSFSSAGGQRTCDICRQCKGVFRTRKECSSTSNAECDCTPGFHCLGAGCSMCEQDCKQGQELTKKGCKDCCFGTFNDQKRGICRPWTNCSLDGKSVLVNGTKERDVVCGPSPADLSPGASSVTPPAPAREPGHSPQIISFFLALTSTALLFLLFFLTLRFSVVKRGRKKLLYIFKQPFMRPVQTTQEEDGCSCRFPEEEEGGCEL", "assay": "CD137 reporter cell activity washout assay", "format": "cell-based", "set-up": "host or cells: Jurkat cells", "details": "10 nM, exposure 30, 60 or 120 minutes, total 6 hours; FIG. 13", "procedure": "Jurkat cells engineered to overexpress CD137 and express a luciferase gene under the NF-κB promoter were purchased from Promega. The reporter cells were incubated with 10 nM of CD137 agonists for the indicated times at 37° C. in RPMI1640 media with 1% FBS. After either 30, 60, or 120 minutes, cells were washed in an excess of culture media and resuspended in 75 μL of fresh media. A no washout condition was also included. All washout conditions were performed in duplicate. Cells then continued to incubate for a total of 6 hours (an additional 5.5, 5, or 4 hours respective to exposure times). After incubation, 75 μL of Bio-Glo reagent (Promega) was added to each well and allowed to equilibrate for 10 minutes at room temperature. Luminescence was read on the Clariostar plate reader (BMG LabTech). Fold induction was calculated by dividing the luminescence signal by background wells (reporter cells with no agonist added). The percent of the maximum fold induction was calculated by dividing the fold induction of the washout time by the fold induction of the no washout condition and multiplying by 100."}, "CD137 [3]": {"target": "T1, CD137", "assay": "CD137 Promega reporter cell activity assay (NF-κB luciferase in Jurkat cells)"}}, "data": [{"smiles": "CCCC[C@@H]1NC(=O)[C@H](Cc2ccc(O)cc2)NC(=O)[C@@H]2CCCN2C(=O)[C@H](CC(=O)O)NC(=O)[C@H](C)NC(=O)[C@H](Cc2ccccc2)NC(=O)[C@@H]2CSCCC(=O)N3CN(CN(C3)C(=O)CCSC[C@@H](C(=O)N[C@@H](C)C(N)=O)NC1=O)C(=O)CCSC[C@H](NC(C)=O)C(=O)N[C@@H](CC(C)(C)C)C(=O)N1CCC[C@H]1C(=O)N[C@@H](CCCCNC(=O)CCc1cn(CCOCCOCCOCCOCCOCCOCCOCCOCCOCCOCCOCCOCCOCCOCCOCCOCCOCCOCCOCCOCCOCCOCCOCCNC(=O)CCOCC(COCCC(=O)NCCOCCOCCOCCOCCOCCOCCOCCOCCOCCOCCOCCOCCOCCOCCOCCOCCOCCOCCOCCOCCOCCOCCOCCn3cc(CCC(=O)NCCCC[C@@H]4NC(=O)[C@@H]5CCCN5C(=O)[C@H](CC(C)(C)C)NC(=O)[C@@H](NC(C)=O)CSCCC(=O)N5CN6CN(C5)C(=O)CCSC[C@H](NC(=O)[C@H](Cc5ccc(O)cc5)NC(=O)[C@@H]5CCCN5C(=O)[C@@H](C)NC4=O)C(=O)N[C@@H](Cc4ccccc4)C(=O)N[C@@H](C)C(=O)N[C@@H](CC(=O)O)C(=O)N4CCC[C@H]4C(=O)N[C@@H](Cc4ccc(O)cc4)C(=O)N[C@@H](CCCC)C(=O)N[C@H](C(=O)N[C@@H](C)C(N)=O)CSCCC6=O)nn3)(COCCC(=O)NCCOCCOCCOCCOCCOCCOCCOCCOCCOCCOCCOCCOCCOCCOCCOCCOCCOCCOCCOCCOCCOCCOCCOCCn3cc(CCC(=O)NCCCC[C@@H]4NC(=O)[C@@H]5CCCN5C(=O)[C@H](CC(C)(C)C)NC(=O)[C@@H](NC(C)=O)CSCCC(=O)N5CN6CN(C5)C(=O)CCSC[C@H](NC(=O)[C@H](Cc5ccc(O)cc5)NC(=O)[C@@H]5CCCN5C(=O)[C@@H](C)NC4=O)C(=O)N[C@@H](Cc4ccccc4)C(=O)N[C@@H](C)C(=O)N[C@@H](CC(=O)O)C(=O)N4CCC[C@H]4C(=O)N[C@@H](Cc4ccc(O)cc4)C(=O)N[C@@H](CCCC)C(=O)N[C@H](C(=O)N[C@@H](C)C(N)=O)CSCCC6=O)nn3)COCCC(=O)NCCOCCOCCOCCOCCOCCOCCOCCOCCOCCOCCOCCOCCOCCOCCOCCOCCOCCOCCOCCOCCOCCOCCOCCn3cc(CCC(=O)NCCCC[C@@H]4NC(=O)[C@@H]5CCCN5C(=O)[C@H](CC(C)(C)C)NC(=O)[C@@H](NC(C)=O)CSCCC(=O)N5CN6CN(C5)C(=O)CCSC[C@H](NC(=O)[C@H](Cc5ccc(O)cc5)NC(=O)[C@@H]5CCCN5C(=O)[C@@H](C)NC4=O)C(=O)N[C@@H](Cc4ccccc4)C(=O)N[C@@H](C)C(=O)N[C@@H](CC(=O)O)C(=O)N4CCC[C@H]4C(=O)N[C@@H](Cc4ccc(O)cc4)C(=O)N[C@@H](CCCC)C(=O)N[C@H](C(=O)N[C@@H](C)C(N)=O)CSCCC6=O)nn3)nn1)C(=O)N[C@H](C)C(=O)N1CCC[C@H]1C(=O)N[C@@H](Cc1ccc(O)cc1)C(=O)N2", "note": "[BCY8945]", "values": [{"measurement": "anti-tumour activity (tumor volume), Study 2", "setting": "MC38 syngeneic tumors; 30 mg/kg QD × 20, FIG. 8", "result": "elicits anti-tumour activity"}, {"measurement": "T-cell percentage in the tumor tissue (% CD3+ among CD45+)", "setting": "MC38 syngeneic tumors; Study 2, 21 days of treatment, compared to CD137 monoclonal antibody agonist, FIG. 9", "result": "elicits a range of increase in T-cell and CD8+ T-cell percentage"}, {"measurement": "CD8+ T-cell percentage in the tumor tissue (% CD8+ among CD45+CD3+)", "setting": "MC38 syngeneic tumors; Study 2, 21 days of treatment, compared to CD137 monoclonal antibody agonist, FIG. 10", "result": "elicits a range of increase in T-cell and CD8+ T-cell percentage"}, {"measurement": "CD4+ T-cell percentage in the tumor tissue (% CD4+ among CD45+CD3+)", "setting": "MC38 syngeneic tumors; Study 2, 21 days of treatment, compared to CD137 monoclonal antibody agonist, FIG. 11", "result": "elicits a range of decease in T-cell percentage"}, {"measurement": "pro-inflammatory cytokine (IL-2, IFNγ) secretion by T-cells", "setting": "[1]", "result": "secrete pro-inflammatory cytokines"}, {"measurement": "cell activity after washout", "setting": "CD137 [2]", "result": "maintains cell activity after washout"}, {"measurement": "Average Fold EC50 Improvement relative to BCY7845", "setting": "CD137 [3]", "result": 0.13}, {"measurement": "Average Relative Fold Induction relative to BCY7845", "setting": "CD137 [3]; Average fold induction for BCY7845 = 6.3", "result": 1.23}, {"measurement": "CD137 agonism / activation in reporter cells (in words)", "setting": "CD137 [3]; FIGS. 1 to 3 and 15", "result": "activates CD137 on the surface of Jurkat reporter cells"}]}]}
